Data published in article PMC10940605, “Design, synthesis and in vitro anticancer activity of some new lomefloxacin derivatives” (Scientific Reports, 2024).

How the values were obtained:
[1] = system: HOP-62; assay: NCI-60 SRB screen; assay type: cell-based; settings: Homo sapiens; HOP-62, 10^–5 Molar; read-out: Percent growth inhibition
How it was run: (§1)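 After a 24 h pre-incubation, the cells received test compound at a single 10^−5 M dose and were incubated a further 48 h. Endpoint was SRB dye binding.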

[2] = system: NCI/ADR-RES; assay: NCI-60 SRB screen; assay type: cell-based; settings: Homo sapiens, 10^–5 Molar, read-out: Percent growth inhibition
How it was run: (§2)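 Compounds were evaluated at one concentration (10^−5 M) against the cell lines over 48 h. Cell mass was measured by sulforhodamine B staining after trichloroacetic acid fixation, with growth expressed relative to time-zero and control cultures.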

[3] = system: NCI-H226; assay: NCI-60 SRB screen; assay type: cell-based; settings: Homo sapiens; NCI-H226, 10^–5 Molar; read-out: Percent growth inhibition
How it was run: as §2

[4] = system: MALME-3M; assay: NCI-60 SRB screen; assay type: cell-based; settings: Homo sapiens, 10^–5 Molar, read-out: Percent growth inhibition
How it was run: as §2

[5] = system: OVCAR-5; assay: NCI-60 SRB screen; assay type: cell-based; settings: Homo sapiens; OVCAR-5, 10^–5 Molar; read-out: Percent growth inhibition
How it was run: as §2

[6] = system: MDA-MB-435; assay: NCI-60 SRB screen; assay type: cell-based; settings: Homo sapiens; MDA-MB-435, 10^–5 Molar; read-out: Percent growth inhibition
How it was run: as §2

[7] = system: HOP-92; assay: NCI-60 SRB screen; assay type: cell-based; settings: Homo sapiens; HOP-92, 10^–5 Molar; read-out: Percent growth inhibition
How it was run: as §1

[8] = system: NCI-H23; assay: NCI-60 SRB screen; assay type: cell-based; settings: Homo sapiens; NCI-H23, 10^–5 Molar; read-out: Percent growth inhibition
How it was run: as §1

[9] = system: SF-268; assay: NCI-60 SRB screen; assay type: cell-based; settings: Homo sapiens; SF-268, 10^–5 Molar; read-out: Percent growth inhibition
How it was run: as §2

[10] = system: 786-0; assay: NCI-60 SRB screen; assay type: cell-based; settings: Homo sapiens; 786-0, 10^–5 Molar; read-out: Percent growth inhibition
How it was run: as §2

[11] = system: MDA-MB-468; assay: NCI-60 SRB screen; assay type: cell-based; settings: Homo sapiens; MDA-MB-468, 10^–5 Molar; read-out: Percent growth inhibition
How it was run: as §1

[12] = system: HS 578T; assay: NCI-60 SRB screen; assay type: cell-based; settings: Homo sapiens, 10^–5 Molar, read-out: Percent growth inhibition
How it was run: as §1

[13] = system: BT-549; assay: NCI-60 SRB screen; assay type: cell-based; settings: Homo sapiens; BT-549, 10^–5 Molar; read-out: Percent growth inhibition
How it was run: as §1

[14] = system: SF-295; assay: NCI-60 SRB screen; assay type: cell-based; settings: Homo sapiens; SF-295, 10^–5 Molar; read-out: Percent growth inhibition
How it was run: as §2

[15] = system: SK-MEL-28; assay: NCI-60 SRB screen; assay type: cell-based; settings: Homo sapiens; SK-MEL-28, 10^–5 Molar; read-out: Percent growth inhibition
How it was run: as §1

[16] = system: LOX IMVI; assay: NCI-60 SRB screen; assay type: cell-based; settings: Homo sapiens, 10^–5 Molar, read-out: Percent growth inhibition
How it was run: as §2

[17] = system: SNB-75; assay: NCI-60 SRB screen; assay type: cell-based; settings: Homo sapiens; SNB-75, 10^–5 Molar; read-out: Percent growth inhibition
How it was run: as §1

[18] = system: SNB-19; assay: NCI-60 SRB screen; assay type: cell-based; settings: Homo sapiens; SNB-19, 10^–5 Molar; read-out: Percent growth inhibition
How it was run: as §2

[19] = system: T-47D; assay: NCI-60 SRB screen; assay type: cell-based; settings: Homo sapiens, T47D, 10^–5 Molar, read-out: Percent growth inhibition
How it was run: as §2

[20] = system: NCI-H460; assay: NCI-60 SRB screen; assay type: cell-based; settings: Homo sapiens; NCI-H460, 10^–5 Molar; read-out: Percent growth inhibition
How it was run: as §1

[21] = system: OVCAR-4; assay: NCI-60 SRB screen; assay type: cell-based; settings: Homo sapiens; OVCAR-4, 10^–5 Molar; read-out: Percent growth inhibition
How it was run: as §1

[22] = system: CAKI-1; assay: NCI-60 SRB screen; assay type: cell-based; settings: Homo sapiens; CAKI-1, 10^–5 Molar; read-out: Percent growth inhibition
How it was run: as §1

[23] = system: OVCAR-3; assay: NCI-60 SRB screen; assay type: cell-based; settings: Homo sapiens; OVCAR-3, 10^–5 Molar; read-out: Percent growth inhibition

Q: For `CCn1cc(C(=O)NN=Cc2ccccc2)c(=O)c2cc(F)c(N3CCNC(C)C3)c(F)c21` (centres unmarked) [Compound 3a, N'-Benzylidene-1-ethyl-6,8-difluoro-7-(3-methylpiperazin-1-yl)-4-oxo-1,4-dihydroquinoline-3-carbohydrazide], which inhibition at 10 µM [1] is on record?
A: 31.4%

Q: And the inhibition at 10 µM [2]?
A: 44%

Q: And the inhibition at 10 µM [3]?
A: 12.6%

Q: What about the inhibition at 10 µM [4] of the same molecule?
A: 178%

Q: What about the inhibition at 10 µM [5] of the same molecule?
A: 33%

Q: What about the inhibition at 10 µM [6] of the same molecule?
A: 188%

Q: And the inhibition at 10 µM [7]?
A: 44.2%

Q: And the inhibition at 10 µM [8]?
A: 31.5%

Q: And the inhibition at 10 µM [9]?
A: 61.1%

Q: And the inhibition at 10 µM [10]?
A: 167%

Q: What about the inhibition at 10 µM [11] of the same molecule?
A: 69.6%

Q: What about the inhibition at 10 µM [12] of the same molecule?
A: 30.3%

Q: And the inhibition at 10 µM [13]?
A: 22.2%

Q: What about the inhibition at 10 µM [14] of the same molecule?
A: 91.1%

Q: What about the inhibition at 10 µM [15] of the same molecule?
A: 179%

Q: What about the inhibition at 10 µM [16] of the same molecule?
A: 187%

Q: And the inhibition at 10 µM [17]?
A: 7.18%

Q: What about the inhibition at 10 µM [18] of the same molecule?
A: 81.1%

Q: What about the inhibition at 10 µM [19] of the same molecule?
A: 36.4%

Q: What about the inhibition at 10 µM [20] of the same molecule?
A: 173%

Q: What about the inhibition at 10 µM [21] of the same molecule?
A: 29.3%

Q: And the inhibition at 10 µM [22]?
A: 54.2%

Q: And the inhibition at 10 µM [23]?
A: 175%

Q: For `CCn1cc(C(=O)NN=Cc2cccc(F)c2)c(=O)c2cc(F)c(N3CCNC(C)C3)c(F)c21` (centres unmarked) [Compound 3b, 1-Ethyl-6,8-difluoro-N′-(3-fluorobenzylidene)-7-(3-methylpiperazin-1-yl)-4-oxo-1,4-dihydroquinoline-3-carbohydrazide], which inhibition at 10 µM [1] is on record?
A: 13.5%

Q: And the inhibition at 10 µM [2]?
A: 21.6%

Q: And the inhibition at 10 µM [3]?
A: 2.9%

Q: What about the inhibition at 10 µM [4] of the same molecule?
A: 167%

Q: What about the inhibition at 10 µM [5] of the same molecule?
A: 9.76%

Q: And the inhibition at 10 µM [6]?
A: 175%

Q: And the inhibition at 10 µM [7]?
A: 48.8%

Q: What about the inhibition at 10 µM [8] of the same molecule?
A: 23.8%

Q: What about the inhibition at 10 µM [9] of the same molecule?
A: 60.6%

Q: What about the inhibition at 10 µM [10] of the same molecule?
A: 140%

Q: What about the inhibition at 10 µM [11] of the same molecule?
A: 28.4%

Q: What about the inhibition at 10 µM [12] of the same molecule?
A: 18.7%

Q: And the inhibition at 10 µM [13]?
A: 17.1%

Q: And the inhibition at 10 µM [14]?
A: 24.3%

Q: What about the inhibition at 10 µM [15] of the same molecule?
A: 164%

Q: And the inhibition at 10 µM [16]?
A: 191%

Q: What about the inhibition at 10 µM [17] of the same molecule?
A: 9.9%

Q: And the inhibition at 10 µM [18]?
A: 159%

Q: What about the inhibition at 10 µM [19] of the same molecule?
A: 27.7%

Q: What about the inhibition at 10 µM [20] of the same molecule?
A: 179%

Q: What about the inhibition at 10 µM [21] of the same molecule?
A: 76.2%

Q: And the inhibition at 10 µM [22]?
A: 33.3%

Q: What about the inhibition at 10 µM [23] of the same molecule?
A: 183%

Q: With `CCn1cc(C(=O)NN=Cc2ccc(Br)cc2)c(=O)c2cc(F)c(N3CCNC(C)C3)c(F)c21` (centres unmarked) [Compound 3c, N'-(4-Bromobenzylidene)-1-ethyl-6,8-difluoro-7-(3-methylpiperazin-1-yl)-4-oxo-1,4-dihydroquinoline-3-carbohydrazide] as the molecule, how does the inhibition at 10 µM [1] read?
A: 11.2%

Q: What about the inhibition at 10 µM [2] of the same molecule?
A: 16.7%

Q: What about the inhibition at 10 µM [3] of the same molecule?
A: 2.69%

Q: What about the inhibition at 10 µM [4] of the same molecule?
A: 41.3%

Q: What about the inhibition at 10 µM [5] of the same molecule?
A: 5.97%

Q: And the inhibition at 10 µM [6]?
A: 83.3%

Q: And the inhibition at 10 µM [7]?
A: 38.8%

Q: What about the inhibition at 10 µM [8] of the same molecule?
A: 9.03%

Q: And the inhibition at 10 µM [9]?
A: 37.4%

Q: And the inhibition at 10 µM [10]?
A: 36.1%

Q: And the inhibition at 10 µM [11]?
A: 17.5%

Q: And the inhibition at 10 µM [12]?
A: 26.9%

Q: And the inhibition at 10 µM [13]?
A: 8.32%

Q: What about the inhibition at 10 µM [14] of the same molecule?
A: 25.5%

Q: And the inhibition at 10 µM [15]?
A: 8.78%

Q: And the inhibition at 10 µM [16]?
A: 178%

Q: What about the inhibition at 10 µM [17] of the same molecule?
A: 14.4%

Q: What about the inhibition at 10 µM [18] of the same molecule?
A: 45.5%

Q: And the inhibition at 10 µM [19]?
A: 36%

Q: What about the inhibition at 10 µM [20] of the same molecule?
A: 151%

Q: And the inhibition at 10 µM [21]?
A: 18.3%

Q: What about the inhibition at 10 µM [22] of the same molecule?
A: 31.5%

Q: And the inhibition at 10 µM [23]?
A: 47.1%

Q: Which results are given for `CCn1cc(C(=O)NN=Cc2cccnc2)c(=O)c2cc(F)c(N3CCNC(C)C3)c(F)c21` (centres unmarked) [Compound 3d, 1-Ethyl-6,8-difluoro-7-(3-methylpiperazin-1-yl)-4-oxo-N'-(pyridin-3-ylmethylene)-1,4-dihydroquinoline-3-carbohydrazide]?
A: inhibition at 10 µM [1]: 40.6%; inhibition at 10 µM [2]: 2.29%; inhibition at 10 µM [3]: 58.2%; inhibition at 10 µM [4]: 40%; inhibition at 10 µM [5]: 31.3%; inhibition at 10 µM [6]: 49%; inhibition at 10 µM [7]: 74.2%; inhibition at 10 µM [8]: 50.9%; inhibition at 10 µM [9]: 63%; inhibition at 10 µM [10]: 54.1%; inhibition at 10 µM [11]: 69.3%; inhibition at 10 µM [12]: 57.8%; inhibition at 10 µM [13]: 23.1%; inhibition at 10 µM [14]: 15.1%; inhibition at 10 µM [15]: 23.1%; inhibition at 10 µM [16]: 82%; inhibition at 10 µM [17]: 41.1%; inhibition at 10 µM [18]: 69.5%; inhibition at 10 µM [19]: 52.6%; inhibition at 10 µM [20]: 63%; inhibition at 10 µM [21]: 51.9%; inhibition at 10 µM [22]: 67.8%; inhibition at 10 µM [23]: 59.8%; melting point: 241 to 243 °C

Q: Which inhibition at 10 µM [1] does the source give for `CCn1cc(C(=O)NN=Cc2cccs2)c(=O)c2cc(F)c(N3CCNC(C)C3)c(F)c21` (centres unmarked) [Compound 3e, 1-Ethyl-6,8-difluoro-7-(3-methylpiperazin-1-yl)-4-oxo-N'-(thiophen-2-ylmethylene)-1,4-dihydroquinoline-3-carbohydrazide] here?
A: 27.6%

Q: What about the inhibition at 10 µM [2] of the same molecule?
A: 32.1%

Q: And the inhibition at 10 µM [3]?
A: 24%

Q: What about the inhibition at 10 µM [4] of the same molecule?
A: 137%

Q: And the inhibition at 10 µM [5]?
A: 32.8%

Q: What about the inhibition at 10 µM [6] of the same molecule?
A: 7.77%

Q: And the inhibition at 10 µM [7]?
A: 46.2%

Q: And the inhibition at 10 µM [8]?
A: 10.2%

Q: And the inhibition at 10 µM [9]?
A: 20.9%

Q: And the inhibition at 10 µM [10]?
A: 32.2%

Q: What about the inhibition at 10 µM [11] of the same molecule?
A: 44.9%

Q: What about the inhibition at 10 µM [12] of the same molecule?
A: 13.9%

Q: What about the inhibition at 10 µM [13] of the same molecule?
A: 38.4%

Q: What about the inhibition at 10 µM [14] of the same molecule?
A: 14.7%

Q: And the inhibition at 10 µM [15]?
A: 10.1%

Q: What about the inhibition at 10 µM [16] of the same molecule?
A: 184%

Q: What about the inhibition at 10 µM [17] of the same molecule?
A: 11.5%

Q: What about the inhibition at 10 µM [18] of the same molecule?
A: 27.1%

Q: And the inhibition at 10 µM [19]?
A: 22.2%

Q: And the inhibition at 10 µM [20]?
A: 76.4%

Q: And the inhibition at 10 µM [21]?
A: 23.8%

Q: What about the inhibition at 10 µM [22] of the same molecule?
A: 53.5%

Q: And the inhibition at 10 µM [23]?
A: 31.3%
